# Experimental data: patent US10610590B2, “Electrochemical plasma activated aqueous chemotherapeutics” (Symbios Technologies, Inc., priority 2016, dated 2020)
# Tested on: MIA PaCa-2 cells
# Assay: Alamar blue cell proliferation assay, pancreatic cancer cells
# Format: cell-based, human
# Conditions: carboplatin 0.2, 1, 2.5, 5 and 10 μg/mL, 72 h incubation
# Description: All lines used were adherent human cell lines. • (i) Pancreatic cancer cell line: MIA PaCa-2 • Source: Available from ATCC (ATCC® CRL1420™) • Complete growth medium: Eagle's Minimum Essential Medium containing 5% fetal bovine serum and 5% cosmic calf serum • (ii) Human umbilical vein endothelial cells: HUVEC • Source: Available from ATCC (ATCC® PCS-100-010™) or Lonza (single or pooled donor) • Complete growth medium: EGM-2 BulletKit (Lonza) • (iii) Human foreskin fibroblasts: HFF-1 • Source: Available from ATCC (ATCC® SCRC-1041™) • Complete growth medium: Dulbecco's Modified Eagle's Medium containing 15% fetal bovine serum • (iv) Immortalized pancreas duct epithelial-like cells: hTERT-HPNE • Source: Available from ATCC (ATCC® CRL4023™) • Complete growth medium: Specialty Dulbecco's Modified Eagle's Medium composition, protocol available from ATCC • (v) Primary pancreatic stellate cells: Panc stellate • Source: Available from Applied Biological Materials (T4215) • Complete growth medium: Prigrow I containing 10% fetal bovine serum.
# Each cell line was adherent in a growth flask, incubated at 37° C. and 5% CO2; de-attached cell from growth flask using Trypsin-EDTA solution (0.25% Trypsin, 0.53 mM EDTA); and counted by Trypan blue staining standard protocol. […]
# A standard cell proliferation assay was used, the Alamar blue assay, to assess quantification of viable cells. […]
structure (smiles),measurement,value
N.N.O=C([O-])C1(C(=O)[O-])CCC1.[Pt+2] [carboplatin],human pancreatic cancer cell proliferation (positive control),dose dependent cell growth inhibition
